From patent US20130316394A1, “VIABILITY STAINING METHOD” (priority 2012, published 2013)

Legend:
E. coli [1] = assay: Discrimination of viable and non-viable E. coli in solution with fluorescent probe and two PET quenchers; format: cell-based; conditions: mixed viable/heat killed E. coli, 0.005 mM Oxazine 170 perchlorate, 0.4 mM p-Sulfonic calix[6]arene, 100 mM Sodium ascorbate in PBS, about 5 min
Method: The viable and heat killed E. coli were preparations were prepared as described in Example 1. The heat killed E. coli suspension was then combined with the viable cell suspension and mixed by vortexing. The resulting cell suspension served as the viable and non-viable E. coli solution.
A fluorescent probe-quencher stain was prepared as a solution consisting of 0.005 mM Oxazine 170 perchlorate (Sigma-Aldrich, St. Louis, Mo.), 0.4 mM p-Sulfonic calix[6]arene (TCI America, Portland, Oreg.), 100 mM Sodium ascorbate (Sigma-Aldrich, St. Louis, Mo.) in PBS.
The viable and non-viable E. coli suspension was then diluted 1:1000 into the fluorescent probe-quencher solution to stain the cells. After incubation for approximately 5 minutes, a droplet of the stained cell solution was placed onto a microscope slide and imaged on a fluorescent microscope (Carl Zeiss, LLC, Thornwood, N.Y.).
FIGS. 20A and 20B show a combined image of the viable and non-viable stained E. coli captured under phase contrast (FIG. 20A) as well as fluorescent conditions (excitation 575-625 nm, emission 660-710 nm) (FIG. 20B). The viable and non-viable cells were indistinguishable in phase contrast but under fluorescent conditions the viable cells were brightly fluorescent whereas the non viable cells were not.

E. coli [2] = assay: Imaging of viable and heat killed E. coli on a membrane with fluorescent probe and quencher wash; format: cell-based; conditions: 0.005 mM Oxazine 170 perchlorate stain, 10 mM quencher wash in PBS
Method: Viable and non-viable E. coli cell fractions were prepared by picking a colony cultured on a conventional media plate and then transferring the cells into Phosphate Buffered Saline (PBS). The cells then were suspended by vortexing and then were further diluted in PBS to give a turbidity equivalent to a 1.0 McFarland standard. This stock solution served as the live cell fraction. An aliquot of the live cell fraction was transferred to a glass tube that was placed into a boiling water bath for about 15 minutes to heat kill the E. coli. The tube was removed from the bath and allowed to cool to room temperature. This heat killed suspension served as the dead cell fraction.
A fluorescent stain solution was prepared as a 0.005 mM solution of Oxazine 170 perchlorate (Sigma-Aldrich, St. Louis, Mo.) in PBS containing a 1:100,000 dilution of 10% w/v 0.8 μm Sky Blue latex fluorescent particles (Spherotech, Lake Forest, Ill.). A separate quencher wash solution was prepared as a 10 mM Sodium ascorbate (Sigma-Aldrich, St. Louis, Mo.) solution in PBS. […]
The cells then were imaged using a fluorescent microscope (Carl Zeiss, LLC—Thornwood, N.Y.) with an excitation of 575 nm-625 nm and measured emission of 660 nm-710 nm. […]

Row | Structure (SMILES) | permeation of non-viable cell membranes and quenching of fluorescence (E. coli [1]) | permeation of the quencher into heat killed cells and effect on fluorescence (E. coli [2]; heat killed E. coli on 0.2 μm membrane) | permeation of the quencher into viable cells (E. coli [2]; live E. coli on 0.2 μm membrane)
1 | O=S(=O)(O)c1cc2c(O)c(c1)Cc1cc(S(=O)(=O)O)cc(c1O)Cc1cc(S(=O)(=O)O)cc(c1O)Cc1cc(S(=O)(=O)O)cc(c1O)Cc1cc(S(=O)(=O)O)cc(c1O)Cc1cc(S(=O)(=O)O)cc(c1O)C2 [p-Sulfonic calix[6]arene, 4- Sulfocalix [6]arene] | effective quenching of fluorescence |  | 
2 | O=C1O[C@H]([C@@H](O)CO)C([O-])=C1O.[Na+] [sodium ascorbate, Sodium Ascorbate] | effective quenching of fluorescence | quenching of the fluorescent signal and a loss of fluorescence | excluded from the viable cells
